Measurements from paper PMC10794345, “Analysis of vascular disruption in zebrafish embryos as an endpoint to predict developmental toxicity” (Archives of Toxicology, 2023).
Entries after “also recorded” stand apart in the source; their conditions may differ. Like-named read-outs stand apart in the source and are kept apart here.

Key:
[1] = tested on: zebrafish embryos (wild-type strain OBI/WIK); test: Lethality of zebrafish embryos at 96 hpf; type: in vivo, zebrafish (D. rerio); settings: embryos exposed from 24 hpf, compared to exposure from 3 hpf
Description: (§1) Fertilized and normally developed embryos were selected according to Kimmel et al. ([1995]) with a dissection microscope (Olympus SZx7-ILLT) at 1 hpf. Depending on experiment, exposure was started within 2–3 h post-fertilization (16–128 cell stages) or at 24 hpf. Exposure was conducted in rectangular 96-well microplates (Clear Polystyrene, flat bottom, Uniplate, Whatman, GE Healthcare) covered by a lid with a test volume of 400 µL of exposure media. For each replicate one embryo per well and 16 wells per concentration were assessed. Experiments were performed with at least two replicates on independent days and breeding.
(§2) Concentration–response curves were fitted for lethality, heart rate, morphological features as previously described (Teixidó et al. [2019], [2022]). The assessment of lethality and morphological features was based on the percentage of embryos affected. Therefore, morphological endpoints were dichotomized, i.e. feature metrics were converted to the percentage of embryos deviating from controls. An embryo was considered to deviate when it was outside 1.5-fold of the standard deviation range of the mean of the control group. The control mean was determined by pooling control embryos across all experiments (n = 160) (available at git.ufz.de). For heart rate and angiogenesis (number of ISVs) the analysis was based on normalized values, i.e. for each experiment the values of the treatment were divided by the control value. The experiments were designed to calculate effect concentrations based on modelled curve fits. Different concentrations were used in at least two independent replicates, with means of each replicate based on the exposure of 16 different embryos per concentrations. Effect concentration were only modeled when three conditions were met. (1) The Tukey trend test based on the R package "tukeytrend" (Schaarschmidt et al. [2022]) was deriving a maximum p-value of 0.05. (2) The Akaike information criterion (AIC) for the log-logistic model was lower than the AIC for a linear model with slope 0 (lower p values for the letter would indicate that there is no trend in the data). (3) We calculated effect concentrations only if at least 30% of embryos for that endpoint were affected in at least one exposure concentration of (for normalized data) a reduction or increase by 30% was observed.

[2] = Lethality of zebrafish embryos at 96 hpf; type: in vivo, zebrafish (D. rerio); settings: OBI/WIK wild-type, zebrafish, in vivo, other: immersion of embryos in exposure media, 3–96 hpf exposure; ± 95% confidence intervals
Description: as §1, §2

[3] = tested on: early life stage zebrafish; settings: ref Tal et al. [2014]; read-out: EC50 for decreased ISV length; cited from earlier work
[4] = tested on: zebrafish embryos (wild-type strain OBI/WIK); test: ISV inhibition (angiogenesis) by video subtraction in wildtype zebrafish embryos; type: in vivo, zebrafish (D. rerio); settings: for IC50: Danio rerio, ± 95% confidence intervals, read-out: IC50 of ISV inhibition
Description: A wild-type adult zebrafish strain (D. rerio, strain OBI/WIK, generation F3), originating from an in-house cross of zebrafish strains UFZ-OBI and WIK, was used for all experiments. The Tg(kdr:EGFP) strain was kindly provided by the University of Jena. Fish were fed twice daily with dry food (SDS-400, Special Diets Services, Essex England) and once daily with Artemia sp. […] Spawning trays were inserted 4–6 h before the end of the light cycle. The following day, spawning was initiated by the onset of light and eggs were collected within 1 h. Exposure in all experiment was ceased at 96 hpf.
Exposure was conducted in rectangular 96-well microplates (Clear Polystyrene, flat bottom, Uniplate, Whatman, GE Healthcare) covered by a lid with a test volume of 400 µL of exposure media. For each replicate one embryo per well and 16 wells per concentration were assessed. Experiments were performed with at least two replicates on independent days and breeding.
To determine the number of ISVs in the trunk region, high-resolution images of 96 hpf-old zebrafish embryos were recorded using a Leica DM6B-Z microscope (Leica, Wetzlar, Germany) attached to the VAST imaging system, and a camera (Leica DFC9000 sCMOS, objective: HC APO L U-V-I 20x/0.50 WATER UV). A series of 20 images with a frame rate of 20 images per second and a 2 × 2 pixel binning was recorded in autofocus mode for each embryo.
A series of MATLAB scripts (Supplement File ‘Workflow 3.m’ and ‘Workflow 4.m’) was used to convert the image series into a video and to visualize the blood vessel by applying a video subtraction approach (Figure SI1). Briefly, each video frame was subtracted from the average image of the whole image sequence and converted to a binary image by applying a Gaussian blur (σ = 5) and a threshold of 0.025 to obtain optimal contrast in binary images. Subsequently, the sum of all binary images was calculated. Due to movement of the blood cells the subtraction approach removed all parts from the image which were not moving resulting in an image of the blood vessels. This binary image of the blood vessel network in the zebrafish embryo tail was then processed with the FishInspector annotation software (version 1.70). […] The number of ISVs was obtained by application of a KNIME workflow to FishInspector annotation files. Subsequently concentration–response analysis was conducted using a KNIME workflow. The coefficient of variation (CV) of controls was calculated for both the subtraction and the fluorescence-based method by dividing the standard deviation of individual embryos with the control mean: CVControl=SD/Mean.
as §2, with “The” for “Concentration–response curves were fitted for lethality, heart rate, morphological features as previously described (Teixidó et al. [2019], [2022]). The”, “(1) The Tukey trend test based on the R package "tukeytrend" (Schaarschmidt et al. [2022]) was deriving a maximum p-value of 0.05.” left out, “data).” for “data). (3) We calculated effect concentrations only if at least 30% of embryos for that endpoint were affected in at least one exposure concentration of (for normalized data) a reduction or increase by 30% was observed.”

[5] = tested on: zebrafish embryos (wild-type strain OBI/WIK); test: Morphological features and heart rate by automated imaging (VAST/FishInspector) at 96 hpf; type: in vivo, zebrafish (D. rerio); settings: 96 hpf; listed as VPA
Description: Automated imaging of zebrafish developmental phenotypes was conducted with the VAST BioImager (Union Biometrica, Gees, Belgium (Pardo-Martin et al. [2010]; Pulak [2016])) equipped with a large particle sampler (LP sampler, Union Biometrica). Lateral and dorsoventral images were obtained at 10 µm resolution at 96 hpf. Prior to imaging, all embryos were anesthetized by adding 20 µl tricaine solution ([…] tricaine, TRIS 26 mM, pH 7.5 ± 0.1) to each well of the microplate. Images were processed with an amended version (1.70, available via https://codebase.helmholtz.cloud/ufz/tb3-cite/biotox/FishInspector) of the FishInspector imaging software (Teixidó et al. [2019]). The FishInspector software allows to automatically annotate morphological features including body contour, eye, lower mouth tip, pericard, otoliths, notochord, swimbladder, and yolk and to calculate diverse metrics such as feature length, size, curvature indices, or angle between feature-connecting lines. In contrast to the previously published version, FishInspector 1.70 detects morphological features based on a deep learning approach using the Matlab Neural Network Toolbox and Matlab Image Processing Toolbox (Mathworks, Natick, […]). In addition, metric calculation was included into the software, and meta information such as test compound, exposure window or test concentration was associated to each image using a microplate layout file. To facilitate training of the models, two additional programs were generated in Matlab including FishTrainer 0.9 (for training of semantic segmentation models of structural features) and FishClassificator 0.9 (for training of position classes to be used in automated flipping of images) available via same repository as FishInspector software. For image training, image size was adjusted to 450 × 300 pixel to reduce computing time. This resolution was sufficient to detect the selected features (data not shown). For training of the deep learning models, approximately 3000 previously annotated images (Teixidó et al. [2022]) were used. The automated annotations were corrected by the user in the event that they were not adequately detecting visible structures. User-bias was avoided by a blinded assessment of images.
FishInspector provided a JSON file corresponding to each image file containing the coordinates of all features and the applied smoothing factor. All images and videos used for this publication can be found at the BioImage Archive S-BIAD954 (https://www.ebi.ac.uk/biostudies/bioimages/studies/S-BIAD954). For each image, a csv file was generated containing calculated metrics. The software automatically provides a summary table containing metrics r of individual embryos. […] The analyzed file includes endpoint names based on the FishInspector software. […]

Row | SMILES | Mortality (in words) [1] | LC50 [2] [nM] | EC50 [3] [nM] | IC50 ([4]; 3–96 hpf exposure) [nM] | IC50 ([4]; 24–96 hpf exposure) [nM] | Effect on ISV formation (in words) ([4]; tested concentration range up to 800 µM, negative control, listed as VPA) | Morphological malformations (in words) [5]
1 | Clc1ccc(Nc2nnc(Cc3ccncc3)c3ccccc23)cc1 [PTK787] | no | 680 ± 510 | 170 | 90 ± 40 | 140 ± 30 |  | 
2 | CCCC(CCC)C(=O)O [Valproic acid] |  |  |  |  |  | No effect; also recorded: no inhibition of ISVs formation was observed | craniofacial malformations were observed; also recorded: changes in head and jaw structures
